Assay results as given in ChEMBL document CHEMBL5614367, “Hydroxamic acid hybrids: Histone deacetylase inhibitors with anticancer therapeutic potency” (Eur J Med Chem, 2023).
One block for each compound: values may come before it.

Assays:
[1] = Metabolic stability in liver microsomes (unknown origin) assessed as half life; type: ADME, Microsome
[2] = Metabolic stability in liver microsomes (unknown origin) assessed as clearance; type: ADME, Microsome; conditions: read-out: CLH
BE(2)-C [3] = test: Antitumor activity against human BE2C cells xenografted in mouse assessed as tumor growth inhibition at 50 mg/kg, ip relative to control; type: functional; conditions: read-out: TGI
Histone deacetylase 8 = biological target: T1, Histone deacetylase 8 (Homo sapiens, UniProt Q9BY41); test: Inhibition of HDAC8 (unknown origin)
T1 sequence (Q9BY41 whole entry): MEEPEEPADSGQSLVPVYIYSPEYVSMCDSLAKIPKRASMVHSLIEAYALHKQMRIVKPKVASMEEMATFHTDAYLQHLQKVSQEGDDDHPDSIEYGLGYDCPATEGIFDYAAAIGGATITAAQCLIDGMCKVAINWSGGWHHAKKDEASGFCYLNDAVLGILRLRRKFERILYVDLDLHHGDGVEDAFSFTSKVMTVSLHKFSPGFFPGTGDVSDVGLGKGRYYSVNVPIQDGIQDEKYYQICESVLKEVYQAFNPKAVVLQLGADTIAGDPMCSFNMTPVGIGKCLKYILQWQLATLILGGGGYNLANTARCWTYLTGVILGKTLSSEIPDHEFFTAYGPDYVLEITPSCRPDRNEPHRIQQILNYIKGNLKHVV

Histone deacetylase 1 = Histone deacetylase 1 (Homo sapiens, UniProt Q13547); test: Inhibition of HDAC1 (unknown origin)
[4] = biological target: T2, Protein deacetylase HDAC6 (Homo sapiens, UniProt Q9UBN7); test: Inhibition of HDAC6 (unknown origin)
T2 sequence (Q9UBN7 whole entry): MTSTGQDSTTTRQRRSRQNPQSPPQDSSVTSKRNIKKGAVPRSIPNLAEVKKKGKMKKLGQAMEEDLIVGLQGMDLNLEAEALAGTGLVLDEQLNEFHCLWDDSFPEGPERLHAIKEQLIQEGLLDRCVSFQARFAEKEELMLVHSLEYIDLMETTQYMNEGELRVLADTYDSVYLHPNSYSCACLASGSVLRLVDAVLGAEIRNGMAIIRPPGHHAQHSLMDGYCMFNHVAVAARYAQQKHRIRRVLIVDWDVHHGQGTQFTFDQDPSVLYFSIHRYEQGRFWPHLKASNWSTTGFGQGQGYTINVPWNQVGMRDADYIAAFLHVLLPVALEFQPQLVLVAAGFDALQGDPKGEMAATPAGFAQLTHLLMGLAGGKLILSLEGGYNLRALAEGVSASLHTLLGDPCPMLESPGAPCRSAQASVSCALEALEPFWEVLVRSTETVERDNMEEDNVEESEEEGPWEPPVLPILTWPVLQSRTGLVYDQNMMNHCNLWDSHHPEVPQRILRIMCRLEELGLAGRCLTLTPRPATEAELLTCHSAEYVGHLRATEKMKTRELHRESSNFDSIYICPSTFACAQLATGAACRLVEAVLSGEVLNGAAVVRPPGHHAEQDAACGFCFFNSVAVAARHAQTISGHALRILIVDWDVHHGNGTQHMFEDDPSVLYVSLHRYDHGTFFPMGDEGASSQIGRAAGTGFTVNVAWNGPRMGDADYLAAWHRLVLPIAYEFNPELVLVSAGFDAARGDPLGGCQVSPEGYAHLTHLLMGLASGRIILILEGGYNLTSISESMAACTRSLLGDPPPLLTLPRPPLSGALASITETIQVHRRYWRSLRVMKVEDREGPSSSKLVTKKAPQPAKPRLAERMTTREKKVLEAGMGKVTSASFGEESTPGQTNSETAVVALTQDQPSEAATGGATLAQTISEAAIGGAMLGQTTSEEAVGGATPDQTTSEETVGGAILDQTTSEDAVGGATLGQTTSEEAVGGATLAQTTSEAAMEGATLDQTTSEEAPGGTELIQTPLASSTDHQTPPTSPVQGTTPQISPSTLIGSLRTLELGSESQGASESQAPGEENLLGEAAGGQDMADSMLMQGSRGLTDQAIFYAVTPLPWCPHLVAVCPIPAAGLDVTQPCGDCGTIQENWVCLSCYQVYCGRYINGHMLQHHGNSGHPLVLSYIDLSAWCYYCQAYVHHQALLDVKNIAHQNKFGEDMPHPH

[5] = Cytotoxicity against human NCM460 cells; type: toxicity, cell-based
[6] = Cytotoxicity against human L02 cells; type: toxicity, cell-based
HepG2 = test: Antiproliferative activity against human HepG2 cells; type: functional, cell-based
A549 = test: Antiproliferative activity against human A549 cells
HCT-116 = test: cells; conditions: Homo sapiens
Description: Antiproliferative activity against human HCT-116 cells

HT-29 = test: Antiproliferative activity against human HT-29 cells; type: functional, cell-based
U-87 MG = test: Antitumor activity against luciferase-transferred human U-87 MG cells xenografted in athymic nude mouse assessed as survival time at 150 mg/kg, po measured for 20 days; type: functional, U-87MG ATCC; conditions: time 20 day
C6 = test: Antitumor activity against rat C6 cells allografted in Sprague-Dawley rat assessed as survival time at 150 mg/kg, po measured for 20 days; type: functional; conditions: time 20 day
Histone deacetylase = test: Inhibition of HDAC in human HeLa cell nuclear extract using Boc-Lys(Ac)-AMC as substrate; type: subcellular, Nucleus
[7] = Toxicity in female BALB/c mouse assessed as maximum tolerable dose; conditions: in vivo
[8] = Half life in BALB/c mouse at 50 mg/kg, po; type: ADME, organism-based; conditions: in vivo
[9] = Metabolic stability in human liver microsomes assessed as half life; type: ADME, Microsome
[10] = Cmax in BALB/c mouse at 50 mg/kg, po; type: ADME, organism-based; conditions: in vivo
[11] = Oral bioavailability in BALB/c mouse at 50 mg/kg; type: ADME, organism-based; conditions: in vivo
[12] = Metabolic stability in rat liver microsomes assessed as half life; type: ADME, Microsome
[13] = Tmax in BALB/c mouse at 50 mg/kg, po; type: ADME, organism-based; conditions: in vivo
RPMI-8226 [14] = test: Antiproliferative activity against human RPMI-8226 cells assessed as inhibition of cell growth incubated for 48 hrs by MTT assay; type: functional, cell-based; conditions: RPMI-8226, 48 h
[15] = Cytotoxicity against HEK293 cells assessed as inhibition of cell growth incubated for 48 hrs by MTT assay; type: toxicity, cell-based; conditions: human
[16] = Metabolic stability in mouse liver microsomes assessed as half life at 1 uM incubated in presence of NADPH by LC-MS/MS analysis; type: ADME, Microsome
[17] = biological target: T2, Protein deacetylase HDAC6; test: Inhibition of HDAC6 (unknown origin) using Boc-Lys(acetyl)-AMC as substrate preincubated for 5 mins followed by substrate addition and measured after 30 mins by fluorescence based assay
U-266 = test: cells; type: functional, cell-based; conditions: Homo sapiens, U-266, 48 h
RPMI-8226 [18] = test: Antitumor activity against human RPMI-8226 cells xenografted in BALB/c-nu mouse assessed as reduction in tumor growth by measuring relative increment ratio T/C at 50 mg/kg/day, ip administered for 19 days and measured every 3 days by vernier caliper relative to control; type: functional; conditions: time 19 day
[19] = Cytotoxicity against human L02 cells assessed as inhibition of cell growth incubated for 48 hrs by MTT assay; type: toxicity, cell-based
MM1.S = test: Antiproliferative activity against human MM1.S cells assessed as inhibition of cell growth incubated for 48 hrs by MTT assay; type: functional, cell-based
BE(2)-C [20] = test: Antitumor activity against human BE2C cells xenografted in mouse assessed as tumor growth inhibition at 5 mg/kg, ip in presence of 50 mg/kg vorinostat relative to control; type: functional; conditions: read-out: TGI
BE(2)-C [21] = test: Antitumor activity against human BE2C cells xenografted in mouse assessed as tumor growth inhibition at 5 mg/kg, ip relative to control; type: functional; conditions: read-out: TGI

Sequence of Histone deacetylase 1 (Q13547 whole entry): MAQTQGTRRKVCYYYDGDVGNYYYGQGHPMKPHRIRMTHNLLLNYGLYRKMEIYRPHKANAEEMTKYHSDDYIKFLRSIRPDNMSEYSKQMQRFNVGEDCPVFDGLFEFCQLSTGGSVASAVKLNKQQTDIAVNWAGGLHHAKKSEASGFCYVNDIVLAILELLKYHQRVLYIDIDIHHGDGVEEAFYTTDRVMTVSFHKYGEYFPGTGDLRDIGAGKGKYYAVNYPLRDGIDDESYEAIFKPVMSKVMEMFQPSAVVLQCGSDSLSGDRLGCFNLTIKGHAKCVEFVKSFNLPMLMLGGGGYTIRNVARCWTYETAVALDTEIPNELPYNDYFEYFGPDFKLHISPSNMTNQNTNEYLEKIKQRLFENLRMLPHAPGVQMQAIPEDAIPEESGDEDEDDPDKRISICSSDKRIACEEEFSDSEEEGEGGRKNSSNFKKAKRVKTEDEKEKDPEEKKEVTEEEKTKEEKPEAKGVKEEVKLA

IC50 (Histone deacetylase 1): 22 nM
IC50 [4]: 450 nM
IC50 (HepG2): 1410 nM
IC50 (A549): 1410 nM
IC50 (HCT-116): 1410 nM
IC50 (HT-29): 1410 nM
SMILES: COc1ccc2c3ccnc(C)c3n(CC3CCN(c4ncc(C(=O)NO)cn4)CC3)c2c1
IC50 [5]: 18500 nM
IC50 [6]: 11300 nM

IC50 (RPMI-8226 [14]): 620 nM
half-life at 1 µM [16]: > 60 min
IC50 [17]: 10 nM
IC50 (U-266): 620 nM
IC50 (MM1.S): 620 nM
SMILES: O=C(NO)c1ccc(CNc2ncnc3[nH]ccc23)cc1
IC50 at 48 h [15]: > 50000 nM
T/C (RPMI-8226 [18]): 70%
IC50 at 48 h [19]: > 50000 nM

The next lines start with the compound.

SMILES: COc1cc(-c2cccc(-c3ccc(/C=C/C(=O)NO)cc3)n2)cc(OC)c1OC
half-life [1]: 54.8 min
CLint scaled [2]: 22.8 mL/min/kg
inhibition in vivo at 50 mg/kg (BE(2)-C [3]): 61%
IC50 (Histone deacetylase 8): 117 nM

SMILES: O=C(CCCCCCC(=O)Nc1ccccc1)NO [VORINOSTAT]
Survival (U-87 MG): 13 days
Survival (C6): 13 days

SMILES: CC(C)n1cnc2c(-c3cccc(OCCCC(=O)NO)c3)nc(N3CCOCC3)nc21
IC50 (Histone deacetylase): 35 nM
MTD [7]: 200 mg/kg
half-life [8]: 113 min
half-life [9]: > 45 min
Cmax [10]: 1620 ng/mL
bioavailability [11]: 21%
half-life [12]: > 45 min
Tmax [13]: 9 min

SMILES: CC(=O)O[C@H]1C(=O)[C@@]2(C)[C@H]([C@H](OC(=O)c3ccccc3)[C@]3(O)C[C@H](OC(=O)[C@H](O)[C@@H](NC(=O)c4ccccc4)c4ccccc4)C(C)=C1C3(C)C)[C@]1(OC(C)=O)CO[C@@H]1C[C@@H]2O [PACLITAXEL]
inhibition in vivo at 5 mg/kg (BE(2)-C [20]): 44%
inhibition in vivo at 5 mg/kg (BE(2)-C [21]): 30%
